# In US20200315984A1 (priority 2013, published 2020):
# Where two headings read alike, the source gives them in different places.
# Legend:
# [1] = cited from earlier work
# [2] = Extrapolated absorption data for dual-film dosage; type: in vivo; conditions: human, plasma, dual-layered film; for AUC: local pH 3.5 and 5.5, read-out: Naloxone AUC; for Cmax: local pH 3.5 and 5.5, read-out: Naloxone Cmax
# Protocol: A dual-film dosage is prepared, with the first film layer having a local pH of about 3.5 and containing an antagonist therein, and the second film layer having a local pH of about 5.5 and containing an agonist therein. In this dual-film dosage, the first film layer (having the antagonist) is a fast-dissolving film, while the second film layer (having the agonist) is a moderate dissolving film.
# [3] = other: sublingual or buccal film
# [4] = other: sublingual/buccal film dissolved in the oral cavity
compound,measurement,setting,value
C=CCN1CC[C@]23c4c5ccc(O)c4O[C@H]2C(=O)CC[C@@]3(O)[C@H]1C5 [naloxone],pKa,[1],about 7.94
same,AUC,[2]; [3],0.0905 to 0.724 ng·h/mL
same,Cmax,[2]; [3],0.0325 to 0.26 ng/mL
same,AUC,[2]; [4],0.0906 to 0.724 ng·h/mL
same,Cmax,[2]; [4],0.0325 to 0.26 ng/mL
